The text below walks through data of patent US8372844B2, “Piperazinyl-propyl-pyrazole derivatives as dopamine D4 receptor antagonists, and pharmaceutical compositions containing the same” (Korea Research Institute of Chemical Technology, priority 2007, dated 2013).

In one series the target is T1, 5-HT2C receptor (Homo sapiens, UniProt P28335).
T1 sequence (P28335 33-458): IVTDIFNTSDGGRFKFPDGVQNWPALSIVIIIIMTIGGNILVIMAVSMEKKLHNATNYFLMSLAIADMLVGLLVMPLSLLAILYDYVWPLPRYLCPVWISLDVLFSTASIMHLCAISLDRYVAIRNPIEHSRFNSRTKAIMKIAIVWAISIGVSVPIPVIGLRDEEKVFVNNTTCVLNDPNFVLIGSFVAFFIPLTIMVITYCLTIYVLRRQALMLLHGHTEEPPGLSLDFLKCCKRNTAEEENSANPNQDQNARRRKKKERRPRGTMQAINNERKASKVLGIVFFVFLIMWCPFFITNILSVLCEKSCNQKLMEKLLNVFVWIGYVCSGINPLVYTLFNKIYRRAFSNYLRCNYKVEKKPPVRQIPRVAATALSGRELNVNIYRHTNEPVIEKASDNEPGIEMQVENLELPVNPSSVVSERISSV
Nature of the series: Serotonin receptor binding experiment, 5-HT2C. Set-up: species or system human or rat. The conditions noted are these: [3H]Mesulergine 1 nM, 30 min at 37° C.; read-out: Receptor affinity (IC50, nM) 5-HT2C. The procedure: (§1) The measurement of affinity for serotonin 5-HT receptor family was performed according to the experimental conditions as specified in Table 2 below using the method same as in Experimental Example 1 above.

In a further series the target is 5-HT7 receptor (Homo sapiens, UniProt P34969). Nature of the series: Serotonin receptor binding experiment, 5-HT7. Set-up: species or system human or rat. The conditions noted are these: [3H]LSD 3 nM, 90 min at 27° C.; read-out: Receptor affinity (IC50, nM) 5-HT7. The procedure:
as §1

Another series has as its target 5-HT2A receptor (Homo sapiens, UniProt P28223). Nature of the series: Serotonin receptor binding experiment, 5-HT2A. Set-up: species or system human or rat. As to conditions: [3H]ketanserin 1 nM, 15 min at 37° C.; read-out: Receptor affinity (IC50, nM) 5-HT2A. The procedure: as §1
Series [1] has as its target T2, Human recombinant dopamine D3 receptor (Homo sapiens, UniProt P35462).
T2 construct: purchased Euroscreen; host or cells: CHO cell line
Nature of the series: Measurement of affinity for dopamine D3 receptor ([3H]spiperone binding). The conditions noted are these: [3H]spiperone 0.8 nM, CHO cell line, 60 min at 27° C. On the procedure: (§2) Human recombinant dopamine D2 and D3 receptors, which were expressed in CHO cell lines, respectively, were purchased from PerkinElmer and Euroscreen, respectively.
(§3) 50 mM Tris-HCl (pH 7.4) containing […] and 1 mM EDTA was used as a buffer solution for the measurement of affinity for dopamine D2 receptor. 50 mM Tris-HCl (pH 7.4) containing 5 mM MgCl2, 5 mM EDTA, 5 mM KCl, 1.5 mM CaCl2 and 120 mM NaCl was used as a buffer solution for the measurement of affinity for dopamine D3 receptor. For measurement of non-specific binding, 10 μM haloperidol (haloperidol) was used.

For the next series, the target named is 5-HT6 receptor (Homo sapiens, UniProt P50406). Nature of the series: Serotonin receptor binding experiment, 5-HT6. Set-up: species or system human or rat. The conditions noted are these: [3H]LSD 1.8 nM, 60 min at 37° C.; read-out: Receptor affinity (IC50, nM) 5-HT6. The procedure: as §1
The next series concerns the target T3, 5-HT1A receptor (Homo sapiens, UniProt P08908).
T3 sequence (P08908 1-422): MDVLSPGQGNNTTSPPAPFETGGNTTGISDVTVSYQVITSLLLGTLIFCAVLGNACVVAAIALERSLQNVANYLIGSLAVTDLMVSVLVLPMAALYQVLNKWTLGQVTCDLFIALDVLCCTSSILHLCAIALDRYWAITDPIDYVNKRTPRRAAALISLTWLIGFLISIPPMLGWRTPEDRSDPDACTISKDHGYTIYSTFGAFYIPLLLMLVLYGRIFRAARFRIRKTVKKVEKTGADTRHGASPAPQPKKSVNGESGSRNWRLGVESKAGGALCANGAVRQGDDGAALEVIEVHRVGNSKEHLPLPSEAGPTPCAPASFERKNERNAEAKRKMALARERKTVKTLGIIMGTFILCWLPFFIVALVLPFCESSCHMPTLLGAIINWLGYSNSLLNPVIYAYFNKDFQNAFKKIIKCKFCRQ
The series can be described thus: Serotonin receptor binding experiment, 5-HT1A. As to conditions: [3H]8-OH-DPAT 0.5 nM, 60 min at 27° C.; read-out: Receptor affinity (IC50, nM) 5-HT1A. Set-up: species or system human or rat. The procedure:
as §1

Series [2] has as its target T4, Human recombinant dopamine D2 receptor (Homo sapiens, UniProt P14416).
T4 construct: purchased PerkinElmer; host or cells: CHO cell line
The series can be described thus: Measurement of affinity for dopamine D2 receptor ([3H]spiperone binding). As to conditions: for IC50: [3H]spiperone 0.5 nM, CHO cell line, 60 min at 27° C. The procedure:
as §2, §3

For series [3], the system named is rotarod deficit in mice. The series can be described thus: Rotarod deficit in mice. The format is in vivo. The conditions noted are these: for Rotarod deficit TD50 (mg/kg, ip): mice, rod rotating at 6 rpm, 30-120 min after administration; for rotarod deficit TD50 as times of ED50 for antipsychotic efficacy: mouse, in vivo, ip. The procedure:
(§4) Each mouse was administered with a test drug, and then placed on a 1 inch diameter knurled plastic rod rotating at 6 rpm (Ugo-Basile, Milano, Italy), and the rotarod deficit (%) was obtained by counting the number of mice fallen from the rotating rod within 1 min at 30, 60, 90, and 120 min after the administration of the drug.
In general terms: Falling from the rotarod earlier than controls is read as motor impairment.

Series [4] is described as follows: Rotarod deficit in mice. The class given is in vivo. The conditions noted are these: mouse, in vivo, ip, mice, rod rotating at 6 rpm, 30-120 min after administration. On the procedure:
as §4

Series [5] concerns apomorphine-induced cage climbing in mice. The series can be described thus: Apomorphine-induced climbing behavior in mice. The class given is in vivo. As to conditions: ip 30 min prior to apomorphine (1 mg/kg, sc); for ED50: Mus musculus, read-out: Inhibitory effects on apomorphine-induced climbing behavior ED50 (mg/kg, ip). On the procedure: When mice were treated with apomorphine (1 mg/kg, sc), a potent dopamine receptor agonist, and were put into cylindrical cages (diameter, 12 cm/height, 14 cm) with the floor and wall consisting of metal bars and covered with a lid, they begin to perform repeatedly a psychotic behavior of ‘cage climbing’. Their climbing behaviors were monitored every 10 min for 30 min and scored by 4-point rating scale (0˜3 points) depending on the extent of the behavior (Costentin, J. et al., Nature 1975, 257, 405-7; Protais, P. et al., Psychopharmacology 1976, 50, 1-6).
The compounds were injected intraperitoneally into mice 30 min prior to apomorphine administration. The inhibitory effects of the compounds against control group were measured and each ED50 was calculated therefrom.

A word on the IC50: it is the point on the concentration scale where inhibition reaches its midpoint. By TD50 is commonly meant the 50% point of the dose-response relation for the toxic effect studied.

Chain of 5-HT2A receptor (P28223 whole entry): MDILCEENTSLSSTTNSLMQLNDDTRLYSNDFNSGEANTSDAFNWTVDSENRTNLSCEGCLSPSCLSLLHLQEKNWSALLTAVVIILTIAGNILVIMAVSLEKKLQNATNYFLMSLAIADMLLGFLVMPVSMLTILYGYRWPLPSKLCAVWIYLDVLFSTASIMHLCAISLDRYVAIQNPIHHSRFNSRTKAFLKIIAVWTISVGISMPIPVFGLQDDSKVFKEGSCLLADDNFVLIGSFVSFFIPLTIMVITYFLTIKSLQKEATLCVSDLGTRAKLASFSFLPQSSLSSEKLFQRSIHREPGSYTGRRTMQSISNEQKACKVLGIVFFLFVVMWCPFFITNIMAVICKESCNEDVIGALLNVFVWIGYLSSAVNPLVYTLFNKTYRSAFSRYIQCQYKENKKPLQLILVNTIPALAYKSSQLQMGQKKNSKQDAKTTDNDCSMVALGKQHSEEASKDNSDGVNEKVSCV
Chain of 5-HT6 receptor (P50406 whole entry): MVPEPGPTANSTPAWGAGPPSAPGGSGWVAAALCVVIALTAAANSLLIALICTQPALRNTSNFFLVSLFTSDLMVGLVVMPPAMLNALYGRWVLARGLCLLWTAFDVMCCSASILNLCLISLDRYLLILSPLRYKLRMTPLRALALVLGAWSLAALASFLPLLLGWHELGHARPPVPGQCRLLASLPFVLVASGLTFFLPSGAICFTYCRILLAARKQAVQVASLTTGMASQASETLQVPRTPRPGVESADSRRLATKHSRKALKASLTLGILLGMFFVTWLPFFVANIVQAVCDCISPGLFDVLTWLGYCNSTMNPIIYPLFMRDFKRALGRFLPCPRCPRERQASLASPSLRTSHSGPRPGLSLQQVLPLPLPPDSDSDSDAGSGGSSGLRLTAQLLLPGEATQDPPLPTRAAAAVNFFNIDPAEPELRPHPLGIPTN
T4 sequence (P14416 whole entry): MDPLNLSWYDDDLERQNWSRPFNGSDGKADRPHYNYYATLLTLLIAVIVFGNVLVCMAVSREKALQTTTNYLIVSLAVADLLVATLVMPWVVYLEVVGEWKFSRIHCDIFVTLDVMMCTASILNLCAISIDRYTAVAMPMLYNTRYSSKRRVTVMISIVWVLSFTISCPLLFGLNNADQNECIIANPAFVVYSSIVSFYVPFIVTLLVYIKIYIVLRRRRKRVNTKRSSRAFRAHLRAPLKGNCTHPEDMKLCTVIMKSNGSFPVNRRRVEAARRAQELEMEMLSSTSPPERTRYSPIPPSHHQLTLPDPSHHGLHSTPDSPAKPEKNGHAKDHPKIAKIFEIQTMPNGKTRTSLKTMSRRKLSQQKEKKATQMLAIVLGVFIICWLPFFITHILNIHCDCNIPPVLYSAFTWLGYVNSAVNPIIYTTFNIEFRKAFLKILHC
Chain of 5-HT7 receptor (P34969 whole entry): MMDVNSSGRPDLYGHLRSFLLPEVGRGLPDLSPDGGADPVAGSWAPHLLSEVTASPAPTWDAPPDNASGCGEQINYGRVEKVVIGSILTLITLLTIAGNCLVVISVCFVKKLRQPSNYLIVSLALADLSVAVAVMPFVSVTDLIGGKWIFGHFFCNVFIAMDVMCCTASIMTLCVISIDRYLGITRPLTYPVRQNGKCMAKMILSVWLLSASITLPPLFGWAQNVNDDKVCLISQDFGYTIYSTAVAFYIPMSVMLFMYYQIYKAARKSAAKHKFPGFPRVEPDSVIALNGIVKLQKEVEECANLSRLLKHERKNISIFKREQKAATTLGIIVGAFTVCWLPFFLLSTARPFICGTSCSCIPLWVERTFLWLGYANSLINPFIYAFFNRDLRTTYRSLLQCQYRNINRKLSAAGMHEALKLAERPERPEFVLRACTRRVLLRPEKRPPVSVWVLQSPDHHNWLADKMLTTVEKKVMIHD
T2 sequence (P35462 whole entry): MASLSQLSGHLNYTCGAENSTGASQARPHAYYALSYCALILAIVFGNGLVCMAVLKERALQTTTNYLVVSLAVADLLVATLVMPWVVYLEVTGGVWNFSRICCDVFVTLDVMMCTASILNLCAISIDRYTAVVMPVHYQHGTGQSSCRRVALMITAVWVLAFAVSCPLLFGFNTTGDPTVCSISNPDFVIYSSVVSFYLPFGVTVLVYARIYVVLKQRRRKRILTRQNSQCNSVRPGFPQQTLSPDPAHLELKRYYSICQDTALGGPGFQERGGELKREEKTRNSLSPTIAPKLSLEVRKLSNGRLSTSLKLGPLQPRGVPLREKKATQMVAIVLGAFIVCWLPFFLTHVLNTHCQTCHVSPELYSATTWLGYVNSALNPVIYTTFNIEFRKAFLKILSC

Consider `CCCc1cc(CCCN2CCN(c3ccccc3F)CC2)n(-c2ccccc2)n1` [Compound 156, 1-(2-fluorophenyl)-4-(3-(1-phenyl-3-propyl-1H-pyrazol-5-yl)propyl)piperazine], for which the IC50 on 5-HT2C receptor is 1400 nM; on 5-HT7 receptor, 313 nM; on 5-HT2A receptor it was 152 nM; in [1] it was 87 nM; at 5-HT6 receptor, greater than 10000 nM; at 5-HT1A receptor, 126 nM. Moreover, the half-maximal inhibitory concentration (IC50) in series [2] was 696 nM. Further, in series [2], the “affinity for D2 receptors (in words)” value is recorded as “extremely poor affinity”. Moreover, the “Rotarod deficit TD50 (mg/kg, ip)” value in the series on rotarod deficit in mice [3] was found to be 26.0 mg/kg. Further, in the series on rotarod deficit in mice [3], the “rotarod deficit TD50 as times of ED50 for antipsychotic efficacy” value (from here on “rotarod deficit TD50 as times of ED50”) was 2.2-5 times. Further, the TD50 in “Rotarod deficit in mice [4]” lay in the range of 20 to 50 mg/kg. Further, the ED50 in [5] was in the range of 8.8 to 14.5 mg/kg. Besides, the “Inhibitory effects on apomorphine-induced climbing behavior ED50 (mg/kg, ip)” value (“Inhibitory effects” below) in series [5] worked out at 9.6 mg/kg.
For the compound `CCCc1cc(CCCN2CCN(c3ccccc3)CC2)n(-c2ccccc2)n1` [Compound 155, 1-phenyl-4-(3-(1-phenyl-3-propyl-1H-pyrazol-5-yl)propyl)piperazine], the IC50 on 5-HT2C receptor is 671 nM; on 5-HT7 receptor, 259 nM; on 5-HT2A receptor, 35 nM; in series [1], 461 nM; at 5-HT6 receptor, greater than 10000 nM; at 5-HT1A receptor it was 109 nM. Besides, the IC50 in series [2] is 5260 nM. Also, the “affinity for D2 receptors (in words)” value in series [2] was “extremely poor affinity”. Moreover, the “Rotarod deficit TD50 (mg/kg, ip)” value with rotarod deficit in mice [3] stood at 28.5 mg/kg. The “rotarod deficit TD50 as times of ED50” value in the series on rotarod deficit in mice [3] was 2.2-5 times. In “Rotarod deficit in mice [4]”, this compound yielded a TD50 of 20 to 50 mg/kg. In addition, the ED50 in [5] lay within 8.8 to 14.5 mg/kg. In series [5], the “Inhibitory effects” value is on record as 10.7 mg/kg.
Regarding `CCCc1cc(CCCN2CCN(c3ccc(C)c(C)c3)CC2)n(-c2ccccc2)n1` [Compound 159, 1-(3,4-dimethylphenyl)-4-(3-(1-phenyl-3-propyl-1H-pyrazol-5-yl)propyl)piperazine], the IC50 is 154 nM on 5-HT2C receptor; 195 nM at 5-HT7 receptor; 8 nM on 5-HT2A receptor; 131 nM in series [1]; 2500 nM on 5-HT6 receptor; 413 nM on 5-HT1A receptor. For the same compound, in series [2], the IC50 worked out at 2050 nM. Also, the “affinity for D2 receptors (in words)” value in [2] is given as “extremely poor affinity”. Moreover, the “Rotarod deficit TD50 (mg/kg, ip)” value in the series with rotarod deficit in mice [3] worked out at 35.3 mg/kg. Also, in the series with rotarod deficit in mice [3], the “rotarod deficit TD50 as times of ED50” value was 2.2-5 times. The compound further returned a TD50 in “Rotarod deficit in mice [4]” of 20 to 50 mg/kg. Moreover, the ED50 in [5] was in the range of 8.8 to 14.5 mg/kg. The “Inhibitory effects” value in series [5] was 9.1 mg/kg.
Regarding `CCCc1cc(CCCN2CCN(c3cccc(C)c3C)CC2)n(-c2ccccc2)n1` [Compound 160, 1-(2,3-dimethylphenyl)-4-(3-(1-phenyl-3-propyl-1H-pyrazol-5-yl)propyl)piperazine], the half-maximal inhibitory concentration (IC50) at 5-HT2C receptor is 141 nM; on 5-HT7 receptor, 84 nM; at 5-HT2A receptor it was 65 nM; in series [1], 229 nM; on 5-HT6 receptor, 2010 nM; at 5-HT1A receptor, 50 nM. Moreover, in [2], the IC50 was found to be 3790 nM. In addition, the “affinity for D2 receptors (in words)” value in series [2] is “extremely poor affinity”. In addition, the “Rotarod deficit TD50 (mg/kg, ip)” value with rotarod deficit in mice [3] stood at 24.6 mg/kg. Further, the “rotarod deficit TD50 as times of ED50” value in the series on rotarod deficit in mice [3] is reported as 2.2-5 times. The compound also had a TD50 in the series “Rotarod deficit in mice [4]” of 20 to 50 mg/kg. Further, the ED50 in series [5] lay in the range of 8.8 to 14.5 mg/kg. Further, the “Inhibitory effects” value in series [5] amounted to 10.6 mg/kg.
In the case of `CC(C)c1cc(CCCN2CCN(c3ccccc3F)CC2)n(-c2ccccc2)n1` [Compound 177, 1-(2-fluorophenyl)-4-(3-(1-phenyl-3-isopropyl-1H-pyrazol-5-yl)propyl)piperazine], the IC50 on 5-HT2C receptor was found to be 505 nM; on 5-HT7 receptor it was 252 nM; on 5-HT2A receptor, 27 nM; in series [1], 687 nM; on 5-HT6 receptor it was 9210 nM; on 5-HT1A receptor, 37 nM. In series [2], the IC50 came out at 227 nM. The “affinity for D2 receptors (in words)” value in series [2] is listed as “extremely poor affinity”. For the same compound, in the series on rotarod deficit in mice [3], the “Rotarod deficit TD50 (mg/kg, ip)” value is given as 19.4 mg/kg. The “rotarod deficit TD50 as times of ED50” value with rotarod deficit in mice [3] is 2.2-5 times. Besides, the TD50 in “Rotarod deficit in mice [4]” was 20 to 50 mg/kg. Moreover, the ED50 in [5] fell in the range of 8.8 to 14.5 mg/kg. In addition, in [5], the “Inhibitory effects” value amounted to 8.8 mg/kg.
